The source of these data is PMC8213385, “Development of a Fluorescent Assay to Search New Drugs Using Stable tdTomato-Leishmania, and the Selection of Galangin as a Candidate With Anti-Leishmanial Activity” (Frontiers in Cellular and Infection Microbiology, 2021).

The nature of series [1]: Cytotoxicity in macrophage cell line by the MTT method (colorimetric). The series is classed as cell-based. As to conditions: mouse, Raw 264.7 macrophage cell line; Raw 264.7, MTT, 48 h; read-out: Colorimetric CC50 μM (SE). The protocol:
The cytotoxicity against a cell line of macrophages (Raw 264.7) of GAL, MO, FI, RU, EGCG, PE, MI and MA was determined by the MTT method. Cells (3.3 x 10^5/ml) cells were treated with different concentrations of each compound during 48 h at 37°C, 5% CO2. The controls were incubated with RPMI-1640 medium. Briefly, 50 µl of MTT (2 mg/mL) was added to each well and, after 4 h of incubation at 37°C, 5% CO2, the reaction was stopped dissolving the formazan crystals with 100 µl/well of dimethyl sulfoxide. The relative amount of formazan produced by viable macrophages was determined using a spectrophotometer at 595 nm. The percentage of viable cells was calculated according to the formula (OD treated culture−OD blank)/(OD control−OD blank) ×100 as was described previously ([Adinehbeigi et al., 2017]). The cytotoxicity concentration 50% (CC50) was calculated for each compound.
Background: Formazan colour is commonly taken as a measure of viable cells.

In series [2] the test system is promastigotes of L. amaz/tc3. The series can be described thus: Transmission electron microscopy of treated promastigotes. Type of series: cell-based, Leishmania (Leishmania) amazonensis. As to conditions: exposed to the IC50, 48 h. On the procedure: Ultrastructural alterations in Leishmania induced by flavonoids with anti-leishmanial activity were analyzed by transmission electron microscopy (TEM). […] The control was a culture of L. amaz/tc3 incubated in complete RPMI-1640 medium. After 48 h of incubation, samples of L. amaz/tc3 promastigotes from each culture were fixed in modified Karnovsky’s solution (formaldehyde [2.66%], glutaraldehyde [1.66%]) and PBS 0.1M (pH 7,4), and incubated overnight at 4°C. The fixed samples were post-fixed with a 1/1 solution of PBS/2% osmium tetroxide (OsO4), overnight. Then the material was dehydrated and included in Spurr (Pelco, USA). Ultrathin sections were cut with an ultramicrotome (MT1, Sorvall, USA), mounted on copper grids, and contrasted with uranyl acetate (PELCO, USA) and lead citrate.

Series [3] has as its system intracellular amastigotes of L. amaz/tc3. The series can be described thus: Fluorescence assay in the macrophage-amastigote model (Raw 264.7 infected with L. amaz/tc3). Type of series: cell-based, Leishmania (Leishmania) amazonensis. The protocol: Furthermore, the efficacy of MI was also determined against intracellular amastigotes of L. amaz/tc3 and L. amaz/wt. Raw 264.7 macrophages were plated in 96-well black plate (5 x 10^4 cells/well) and in eight well Lab-Tek tissue culture slides (6.6 x 10^4 cells/ml) (Nunc, USA). The cells were infected with promastigotes in stationary phase of L. amaz/tc3 and L. amaz/wt (1:20 ratio) at 33°C, 5% CO2. After incubation, the infected macrophages were washed to remove non-internalized parasites with PBS plus P-S. New RPMI-1640 medium with different concentrations of MI (20 to 0.62 µg/ml) was added to each well and incubated at 33°C, 5% CO2 during 48 h. The anti-leishmanial activity of MI was determined by measuring the fluorescence of intracellular amastigotes of L. amaz/tc3 in a plate reader (Tecan, Männedorf, Switzerland). The viability was calculated as mentioned above, and the IC50 was also estimated. Simultaneously, the leishmanicidal activity of MI against L. amaz/wt was determined by the microscopy test. In this case, the infected macrophages were stained with Diff Quik (Biopur S.R.L., Rosario, Argentina) and the number of intracellular amastigotes was determined in 200-500 macrophages in treated and control cultures per slide under the immersion lens microscope (100x) (Leitz Wetzlar, Germany). The infection index (II) and the % infectivity (I) were calculated by the following formulas: II = IM × A, where IM= infected macrophages (%), A= number of amastigotes per infected macrophages; and I(%)=IIT/IIc×100, where IIT= infection index in treated cultures, IIC= infection index in control cultures ([Ayres et al., 2008]). The IC50 of MI was calculated.
The flavonoids anti-leishmanial activity was also evaluated against intracellular amastigotes. Macrophages (Raw 264.7) were plated in 96-well black plate (5 x 10^4 cell/well) and infected with promastigotes in stationary phase of L. amaz/tc3 (1:20 ratio) at 33°C, 5% CO2. After incubation, the infected macrophages were washed to remove non-internalized parasites with PBS plus P-S. New RPMI-1640 medium with different concentrations of GAL (30 to 3.75 µM), MO (300 to 37.5 µM), FI (65 to 8.12 µM), RU (300 to 37.5 µM) and EGCG (30 to 7.5 µM) was added to each well and incubated at 33°C, 5% CO2 for 48 h. Infected cells treated with Ma (136.6 to 34.1 µM) were the positive controls, and cells incubated only with RPMI-1640 were the negative control. The infected macrophages were incubated during 48 h at 33°C, 5% CO2. After treatment, the fluorescence of intracellular amastigotes of L. amaz/tc3 was measured in a plate reader (Tecan, Männedorf, Switzerland). The viability was determined as was described for MI (fluorescent assay). The selectivity index (SI) (CC50 for macrophages/IC50 for Leishmania) was calculated.

Consider `O=c1c(O)c(-c2ccccc2)oc2cc(O)cc(O)c12` [GAL, Galangin], for which the CC50 (as a rule, the concentration at which the toxic effect on the cells reaches its halfway point) at 48 h in series [1] was 22.8 µM. The “Ultrastructural alterations in promastigotes (TEM)” value in series [2] is “dramatic changes in the mitochondrial structure”. Moreover, in series [3] (15 µM, 48 h), the “Fluorescence Inhibition (%) of amastigotes” value was 29%. Besides, in series [3] (Leishmania, RAW264.7, 48 h, read-out: Fluorescence Inhibition (%) of amastigotes, 15 µM, 48 h), the inhibition (in general, the share of the control response that was lost under treatment) at 15 µM fell in the range of 29 to 31%.
